Measurements: US10160747B2, “Compounds and methods for kinase modulation, and indications therefor” (Plexxikon Inc., priority 2016, dated 2018)
pIC50: −log10 of the molar value.

Columns and labels:
Format in all cases: biochemical
FLT3-D835Y = biological target: T1, FLT3-D835Y (Homo sapiens, UniProt P36888, D835Y); assay: FLT3-D835Y recombinant enzyme kinase assay (AlphaScreen); settings: 8 pt, GMean
T1 construct: purchased Invitrogen PV3967
T1 sequence (P36888 27-993 D835Y): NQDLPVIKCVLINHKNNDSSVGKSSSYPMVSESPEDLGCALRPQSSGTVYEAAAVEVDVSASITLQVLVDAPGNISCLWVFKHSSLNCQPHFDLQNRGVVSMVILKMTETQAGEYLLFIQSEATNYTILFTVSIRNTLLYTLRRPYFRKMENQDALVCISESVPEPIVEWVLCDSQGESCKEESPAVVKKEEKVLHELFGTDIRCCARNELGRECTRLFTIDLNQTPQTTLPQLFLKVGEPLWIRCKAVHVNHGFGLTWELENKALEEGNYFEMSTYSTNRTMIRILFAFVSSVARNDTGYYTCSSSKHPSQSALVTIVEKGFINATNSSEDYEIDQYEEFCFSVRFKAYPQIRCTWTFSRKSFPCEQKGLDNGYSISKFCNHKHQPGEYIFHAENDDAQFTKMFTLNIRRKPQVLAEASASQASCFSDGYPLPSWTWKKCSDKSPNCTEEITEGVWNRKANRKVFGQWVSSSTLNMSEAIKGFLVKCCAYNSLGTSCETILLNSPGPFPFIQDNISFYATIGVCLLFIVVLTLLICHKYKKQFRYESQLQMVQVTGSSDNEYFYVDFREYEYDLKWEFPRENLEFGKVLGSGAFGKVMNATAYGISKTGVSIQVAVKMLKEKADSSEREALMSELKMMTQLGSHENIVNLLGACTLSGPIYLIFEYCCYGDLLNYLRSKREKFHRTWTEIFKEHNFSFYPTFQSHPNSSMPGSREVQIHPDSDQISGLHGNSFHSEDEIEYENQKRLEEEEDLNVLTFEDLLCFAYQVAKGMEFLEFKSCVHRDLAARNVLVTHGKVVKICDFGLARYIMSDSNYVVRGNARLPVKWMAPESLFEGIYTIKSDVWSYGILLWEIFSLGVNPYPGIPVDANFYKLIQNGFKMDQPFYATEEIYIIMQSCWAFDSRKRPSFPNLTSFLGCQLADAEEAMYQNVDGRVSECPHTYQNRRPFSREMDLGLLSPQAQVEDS
Description: (§1) In order to determine the effect of compounds on FLT3 catalytic activity, kinase assays using recombinant enzymes and AlphaScreen® technology have been established. The catalytic activity of c-kit activity was also measured to determine selectivity of the compounds. When the kinases are catalytically active, they phosphorylate a biotinylated peptide substrate on tyrosine residues. Using AlphaScreen® technology, the ability of the compounds to affect the catalytic activity of the kinases can be measured quantitatively. The peptide substrate is immobilized by the AlphaScreen® Streptavidin Donor beads and, upon phosphorylation by a tyrosine kinase, can bind to AlphaScreen® Anti-Phosphotyrosine (PY20) Acceptor beads. Upon excitation of these beads with laser light at 680 nm, singlet oxygen is produced. This singlet oxygen is rapidly quenched, unless the AlphaScreen® Anti-Phosphotyrosine (PY20) Acceptor beads are in close proximity, in which case a proximity signal can be measured at 580 nm. In the presence of catalytic activity, there is a very strong proximity signal. Selective kinase inhibitors affect a decrease in this proximity signal through a decrease in tyrosine phosphorylation of the peptide substrate.
(§2) The assay was performed as summarized below.
(§3) Poly (Glu4-Tyr) Peptide, biotin conjugate [Biotin-GG(EEEEY)10EE] (SEQ ID NO: 4)
(§4) Final concentration=30 nM
(§5) Adenosine Triphosphate (ATP)
(§6) Final concentration for IC50 determination=10 μM (FLT3-D835Y or FLT3-ITD) or 100 μM (c-KIT)
(§7) AlphaScreen® Phosphotyrosine (PY20) Assay Kit
(§8) Final concentration=10 μg/mL
(§9) Dilute compounds in DMSO to 20× final concentration.
(§10) Add 1 μL of compound to each well of 384 well reaction plate (Perkin Elmer #6005359).
(§11) Mix enzyme and Poly (Glu4-Tyr) Peptide substrate at 1.33× final concentration in assay buffer.
(§12) Mix ATP at 5× final concentration in assay buffer.
(§13) Add 15 μL enzyme/substrate mixture to the reaction plate.
(§14) Add 4 μL of ATP to the reaction plate.
(§15) Mix Streptavidin Donor beads at 6× final concentration in Stop/Detection buffer.
(§16) Add 5 μL Streptavidin Donor beads to the reaction plate. Centrifuge 1 minute, shake to mix, and incubate at room temperature for 20 minutes.
(§17) Mix Anti-Phosphotyrosine (PY20) Acceptor beads at 6× final concentration in Stop/Detection buffer.
(§18) Add 5 μL Anti-Phosphotyrosine (PY20) beads to the reaction plate.
(§19) Centrifuge 1 minute, shake to mix, and incubate at room temperature for 60 minutes.
(§20) Read plate on Wallac EnVision™ 2103 Multilabel Reader.

FLT3-ITD = biological target: T2, FLT3-ITD (Homo sapiens, UniProt P36888); assay: FLT3-ITD recombinant enzyme kinase assay (AlphaScreen); settings: 8 pt; read-out: FLT3_ITD 8 pt: IC50
T2 sequence (P36888 1-993): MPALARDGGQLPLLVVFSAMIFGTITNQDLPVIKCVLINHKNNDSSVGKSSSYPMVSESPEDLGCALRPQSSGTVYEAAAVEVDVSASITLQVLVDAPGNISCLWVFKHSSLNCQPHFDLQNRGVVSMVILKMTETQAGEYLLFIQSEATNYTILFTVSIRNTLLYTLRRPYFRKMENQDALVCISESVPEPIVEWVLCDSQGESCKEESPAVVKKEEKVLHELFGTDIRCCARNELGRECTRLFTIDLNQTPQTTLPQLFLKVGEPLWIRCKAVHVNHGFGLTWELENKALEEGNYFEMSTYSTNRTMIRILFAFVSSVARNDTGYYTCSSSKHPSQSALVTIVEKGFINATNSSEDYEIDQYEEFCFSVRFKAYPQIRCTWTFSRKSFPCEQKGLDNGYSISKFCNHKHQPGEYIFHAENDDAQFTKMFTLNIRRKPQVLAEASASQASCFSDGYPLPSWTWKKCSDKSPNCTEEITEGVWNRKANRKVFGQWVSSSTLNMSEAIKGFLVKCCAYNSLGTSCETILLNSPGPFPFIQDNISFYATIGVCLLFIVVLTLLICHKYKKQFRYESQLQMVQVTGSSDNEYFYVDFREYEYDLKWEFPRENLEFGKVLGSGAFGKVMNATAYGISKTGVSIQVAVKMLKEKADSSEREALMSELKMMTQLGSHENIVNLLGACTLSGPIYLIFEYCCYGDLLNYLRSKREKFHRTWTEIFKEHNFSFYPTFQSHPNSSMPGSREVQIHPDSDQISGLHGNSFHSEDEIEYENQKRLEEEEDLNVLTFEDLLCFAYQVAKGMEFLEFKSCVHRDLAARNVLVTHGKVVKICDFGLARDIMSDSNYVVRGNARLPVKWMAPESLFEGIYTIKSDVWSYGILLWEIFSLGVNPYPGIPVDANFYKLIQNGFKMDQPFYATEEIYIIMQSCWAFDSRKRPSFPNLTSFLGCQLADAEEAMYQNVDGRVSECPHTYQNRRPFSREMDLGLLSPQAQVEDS
Description: as §1, §2, §3, §4, §5, §6, §7, §8, §9, §10, §11, §12, §13, §14, §15, §16, §17, §18, §19, §20

c-KIT = biological target: T3, c-KIT (Homo sapiens, UniProt P10721); assay: c-KIT recombinant enzyme kinase assay (AlphaScreen); settings: 100 ATP, 8 pt
T3 construct: purchased Millipore 14-559K
Description: as §1, §2, §3, §4, §5, §6, §7, §8, §9, §10, §11, §12, §13, §14, §15, §16, §17, §18, §19, §20

Measured: pIC50

T3 sequence (P10721 26-976): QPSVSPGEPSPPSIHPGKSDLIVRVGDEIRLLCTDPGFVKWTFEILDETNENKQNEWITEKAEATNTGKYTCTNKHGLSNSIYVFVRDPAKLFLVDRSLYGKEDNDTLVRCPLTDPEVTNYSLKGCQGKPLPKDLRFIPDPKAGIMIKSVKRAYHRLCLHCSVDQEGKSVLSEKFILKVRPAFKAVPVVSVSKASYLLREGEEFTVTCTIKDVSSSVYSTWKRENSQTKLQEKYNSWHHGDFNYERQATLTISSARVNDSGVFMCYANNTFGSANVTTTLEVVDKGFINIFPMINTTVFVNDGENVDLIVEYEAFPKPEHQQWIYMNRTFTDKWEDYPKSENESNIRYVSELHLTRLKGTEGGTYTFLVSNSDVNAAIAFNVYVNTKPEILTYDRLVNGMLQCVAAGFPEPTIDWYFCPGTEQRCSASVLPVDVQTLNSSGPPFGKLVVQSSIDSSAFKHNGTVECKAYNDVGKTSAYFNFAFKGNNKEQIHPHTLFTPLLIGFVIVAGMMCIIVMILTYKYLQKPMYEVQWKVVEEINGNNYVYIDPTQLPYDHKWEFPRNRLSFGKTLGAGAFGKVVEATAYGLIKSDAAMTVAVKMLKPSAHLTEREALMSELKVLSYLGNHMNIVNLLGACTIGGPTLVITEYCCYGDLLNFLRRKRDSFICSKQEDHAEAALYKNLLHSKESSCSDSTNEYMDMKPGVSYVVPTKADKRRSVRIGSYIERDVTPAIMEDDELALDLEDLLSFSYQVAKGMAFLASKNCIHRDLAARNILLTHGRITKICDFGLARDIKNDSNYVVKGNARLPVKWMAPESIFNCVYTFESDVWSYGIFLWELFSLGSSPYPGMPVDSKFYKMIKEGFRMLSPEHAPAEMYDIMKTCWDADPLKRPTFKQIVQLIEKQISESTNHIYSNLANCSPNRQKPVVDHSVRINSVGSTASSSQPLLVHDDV

COc1ncc(NC(=O)Cc2ccc(-c3cnc(Nc4cn[nH]c4)nc3)c(F)c2)cc1C(F)(F)F [Compound P-0028, 2-[3-fluoro-4-[2-(1H-pyrazol-4-ylamino)pyrimidin-5-yl]phenyl]-N-[6-methoxy-5-(trifluoromethyl)-3-pyridyl]acetamide]
5.00 to 10.00: all assays above

O=C(Cc1ccc(-c2cnc3[nH]c(C4CC4)cc3c2)cc1F)Nc1cncc(C(F)(F)F)c1 [Compound P-0080, 2-(4-(2-cyclopropyl-1H-pyrrolo[2,3-b]pyridin-5-yl)-2-fluorophenyl)-N-(5-(trifluoromethyl)pyridin-3-yl)acetamide]
5.00 to 10.00: all assays above
